Here are results for nine molecules from patent US20230355622A1, “METHODS OF CHEMOVACCINATION AGAINST PLASMODIUM INFECTIONS” (Merck Sharp & Dohme LLC, priority 2020, published 2023).

What is called EC50 is the concentration that produces a half-maximal response.

One assay deals with parasite. The experiment in a line: Parasite LDH growth assay (Parasite Assay), antiparasite potency. It is filed as cell-based. Particulars: 72 h, parasite LDH growth assay, ring stage parasites, 72 hours incubation at 37° C.; read-out: EC50. Summed up: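 Ring-stage parasites at 0.7% parasitemia and 2% haematocrit, in RPMI-Hepes/bicarbonate with 5% heat-inactivated human serum and 0.5% albumax, were added to compound-containing medium. Cultures grew 72 h at 37 °C in gassed humidified boxes. Plates were then frozen overnight at −80 °C, thawed 4 h, and growth was measured by LDH assay.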
`CCC1(CC)CC(=O)N([C@@H]2CCCOc3ccc(C(=O)N[C@@H]4c5ccccc5OC(C)(C)[C@H]4O)cc32)C(=N)N1` [Example 248, (5R)-5-(4,4-diethyl-2-imino-6-oxo-hexahydropyrimidin-1-yl)-N-[(3S,4R)-3-hydroxy-2,2-dimethyl-chroman-4-yl]-2,3,4,5-tetrahydro-1-benzoxepine-7-carboxamide]: the EC50 was determined as 0.8 nM.

Consider `CCC1(CC)CC(=O)N([C@H]2c3cc(C(=O)N[C@@H]4c5ccccc5OC(C)(C)[C@H]4O)ccc3CC[C@@H]2OC)C(=N)N1` [Example 276, (3S,4S)-4-(4,4-diethyl-2-imino-6-oxo-hexahydropyrimidin-1-yl)-N-[(3S,4R)-3-hydroxy-2,2-dimethyl-chroman-4-yl]-3-methoxy-tetralin-6-carboxamide], for which the EC50 came out at 0.6 nM. Still for that read-out and setting: the result for `CC[C@]1(C)CC(=O)N([C@H]2c3cc(C(=O)N[C@@H]4c5ccccc5OC(C)(C)[C@H]4O)ccc3OC[C@@H]2COC)C(=N)N1` [Example 277, (3S,4R)-4-[(4R)-4-ethyl-2-imino-4-methyl-6-oxo-hexahydropyrimidin-1-yl]-N-[(3S,4R)-3-hydroxy-2,2-dimethyl-chroman-4-yl]-3-(methoxymethyl)chromane-6-carboxamide] reads 0.4 nM.

On to `CC[C@]1(C)CC(=O)N([C@H]2c3cc(C(=O)N[C@@H]4c5ccccc5OC(C)(C)[C@H]4O)ccc3OCC2(C)OC)C(=N)N1` (stereo partly drawn) [Example 284, 4-[(4R)-4-ethyl-2-imino-4-methyl-6-oxo-hexahydropyrimidin-1-yl]-N-[(3S,4R)-3-hydroxy-2,2-dimethyl-chroman-4-yl]-3-methoxy-3-methyl-chromane-6-carboxamide], for which the EC50 is 8.5 nM.

For the molecule `CCC1(CC)CC(=O)N([C@H]2c3cc(C(=O)N[C@@H]4c5ccccc5C(F)(F)[C@H]4O)ccc3O[C@@]2(C)COC)C(=N)N1` [Example 290, (2R,3S)-3-(4,4-diethyl-2-imino-6-oxo-hexahydropyrimidin-1-yl)-N-[(1R,2S)-3,3-difluoro-2-hydroxy-indan-1-yl]-2-(methoxymethyl)-2-methyl-3H-benzofuran-5-carboxamide], the EC50 came out at 0.3 nM.

`CCC1(CC)CC(=O)N([C@H]2c3cc(C(=O)N[C@H]4c5ccccc5C(F)(F)[C@@H]4O)ccc3O[C@@]2(C)COC)C(=N)N1` [Example 291, (2R,3S)-3-(4,4-diethyl-2-imino-6-oxo-hexahydropyrimidin-1-yl)-N-[(1S,2R)-3,3-difluoro-2-hydroxy-indan-1-yl]-2-(methoxymethyl)-2-methyl-3H-benzofuran-5-carboxamide]: the EC50 was 240 nM. Take `CCC1(CC)CC(=O)N([C@@H]2c3cc(C(=O)N[C@@H]4c5ccccc5OC(C)(C)[C@H]4O)ccc3OC[C@@]2(C)OC)C(=N)N1` [Example 295, (3S,4R)-4-(4,4-diethyl-2-imino-6-oxo-hexahydropyrimidin-1-yl)-N-[(3S,4R)-3-hydroxy-2,2-dimethyl-chroman-4-yl]-3-methoxy-3-methyl-chromane-6-carboxamide]: the EC50 amounted to 100 nM.

The assay is the same for the next values; noted with them: parasite LDH growth assay, ring stage parasites, 72 hours incubation at 37° C.; read-out: EC50.
In the case of `CCC1(CC)CC(=O)N([C@@H]2CCOc3ccc(C(=O)NC4c5ccccc5CC4(O)C(F)(F)F)cc32)C(=N)N1` (stereo partly drawn) [Example 272C, (4R)-4-(4,4-diethyl-2-imino-6-oxo-hexahydropyrimidin-1-yl)-N-[2-hydroxy-2-(trifluoromethyl)indan-1-yl]chromane-6-carboxamide], the EC50 was 0.9 nM.

With `CCC1(CC)CC(=O)N([C@@H]2CCS(=O)(=O)c3ccc(C(=O)N[C@H]4CC(C)(C)Oc5ccccc54)cc32)C(=N)N1` [Example 289, (4R)-4-(4,4-diethyl-2-imino-6-oxo-hexahydropyrimidin-1-yl)-N-[(4S)-2,2-dimethylchroman-4-yl]-1,1-dioxo-3,4-dihydro-2H-thiochromene-6-carboxamide], the EC50 stood at 0.6 nM.
